Assay results published in ChEMBL document CHEMBL3751773, “A minimally cytotoxic CD4 mimic as an HIV entry inhibitor” (Bioorg Med Chem Lett, 2016).
pIC50: −log10 of the molar value.

What was measured:
[1] = tested on: Human immunodeficiency virus 1; assay: Antiviral activity against R5-tropic HIV1 cYTA48P infected in TZM-bl cells by single round assay; assay type: functional, organism-based; conditions: Human immunodeficiency virus 1, cYTA48P
[2] = Cytotoxicity against mock-infected human PM1 cells expressing CCR5 by WST method; assay type: cell-based
PM1 = assay: Induction of conformational change in R5-tropic HIV1 cYTA48P gp120 infected in human PM1 cells assessed as increase in binding affinity to monoclonal antibody 4C11 at 100 uM after 15 mins by FACS analysis; assay type: cell-based; conditions: Human immunodeficiency virus 1
Rhesus monkey [3] = assay: Toxicity in rhesus macaque assessed as decrease in body temperature at 77.8 mg, iv after 24 hrs; assay type: organism-based, Macaca mulatta; conditions: in vivo
[4] = Toxicity in iv dosed rhesus macaque; assay type: organism-based, Macaca mulatta; conditions: rhesus monkey, in vivo
Rhesus monkey [5] = assay: Toxicity in rhesus macaque assessed as survival at 77.8 mg, iv measured after 6 months; assay type: organism-based, Macaca mulatta; conditions: in vivo, 4383 h
Rhesus monkey [6] = assay: Toxicity in rhesus macaque assessed as decrease in body temperature at 77.8 mg, iv measured within 2 hrs; assay type: organism-based, Macaca mulatta; conditions: in vivo
Rhesus monkey [7] = assay: Toxicity in rhesus macaque assessed as mydriasis at 77.8 mg, iv measured within 2 hrs; assay type: organism-based, Macaca mulatta; conditions: in vivo
[8] = Volume of distribution in rhesus macaque plasma at 75 mg, iv after 0 to 24 hrs by HPLC analysis; assay type: ADME, organism-based, Macaca mulatta; conditions: rhesus monkey
[9] = Initial concentration in rhesus macaque blood at 75 mg, iv after 0 to 24 hrs by HPLC analysis; assay type: ADME, organism-based, Macaca mulatta; conditions: rhesus monkey
[10] = Half life in rhesus macaque plasma at 75 mg, iv after 0 to 24 hrs by HPLC analysis; assay type: ADME, organism-based, Macaca mulatta; conditions: rhesus monkey

Structure (SMILES) | pIC50 [1] | CC50 [2] [µM] | Flu intensity (PM1) | also measured
CC1(C)CC(NC(=O)C(=O)Nc2ccc(Cl)cc2)CC(C)(C)N1 | 6.20 | 70.4 | 8.91 | 
CC1(C)CC(NC(=O)C(=O)Nc2ccc3c(c2)OCO3)CC(C)(C)N1.Cl |  |  |  | Activity (Rhesus monkey [3]): Non-toxic; MTD [4]: 12.5 mg/kg; Activity (Rhesus monkey [5]): Non-toxic; Activity (Rhesus monkey [6]): Toxic; Activity (Rhesus monkey [7]): Toxic
CCOC(=O)C1CCN(NC(=O)C(=O)Nc2ccc3c(c2)OCO3)CC1 | < 4.00 | > 200 | 7.83 | 
CC1(C)CC(NC(=O)C(=O)Nc2ccc3c(c2)OCO3)CC(C)(C)N1 [listing 1 of 2 here] | 5.21 | > 300 |  | Vd [8]: 37.2 L; C0 [9]: 2090 ng/mL; half-life [10]: 1.75 h
CC1(C)CC(NC(=O)C(=O)Nc2ccc3c(c2)OCO3)CC(C)(C)N1 [listing 2 of 2 here] |  |  | 12.3 | 
O=C(Nc1ccc2c(c1)OCO2)C(=O)NC1CC2(CCCCC2)NC2(CCCCC2)C1 (stereo not given) | 5.95 | > 200 | 6.93 | 
